Measurements from patent publication US20260206786A1, “PROCEDURE FOR PREPARING COMPOSITIONS WITH A HIGH CONTENT OF BIOACTIVE COMPOUNDS” (I.T.P. S.R.L. INNOVATION & TECHNOLOGY PROVIDER, priority 2022, published 2026).
Where two headings read alike, the source gives them in different places.

Legend:
[1] = Concentration of bioactive compound in oil enriched by the process of the invention; format: physicochemical
Experimental: (§1) Spectrophotometric analyses were performed using an ONDA UV/VIS Spectrophotometer, Model UV-31 SCAN. The oil samples were suitably diluted in RPE ethanol supplied by Carlo Erba. Scans were performed in the wavelength range of 600 nm and 300 nm, with a step size of 1 nm, using optical glass cuvettes.
(§2) HPLC analyses were performed using an Agilent HPLC Chromatograph, 1100 Series, equipped with an Agilent Technologies 1200 Series DAD UV/VIS detector, using an Agilent Eclipse plus 95 Å C18 Column, (100 mm—4.6 mm, 3.5 μm). Acetonitrile, Methanol, Water and Formic Acid for HPLC supplied by Sigma-Aldrich were used for the mobile phase.
At the end of the process, 5 mL of enriched oil was recovered with a concentration expressed as mass of lycopene per mass of oil of 35 mg/100 g, a concentration measured at 25° C. after centrifuging the oil for 15 minutes at 10,000 RPM.

[2] = traditional preparation techniques, literature, cited from earlier work
[3] = Comparison of process of the invention with maceration in oil, UV/VIS spectra; format: physicochemical
Experimental: as §1
(§3) In order to compare the efficacy of the method of the invention with the traditional method of enrichment by maceration in oil, enrichment of vegetable oils was carried out using both methods. Subsequently, equal amounts of oil obtained using the two methods were solubilised in a suitable solvent, respecting the same dilution ratio, and the resulting solutions were subjected to chromatographic and spectrophotometric analysis.

[4] = Comparison of process of the invention with maceration in oil, HPLC chromatograms; format: physicochemical; conditions: Argan oil; Example 1 versus maceration of pure lycopene powder in oil
Experimental: as §2, §3

Compound: COc1cc(CNC(=O)CCCC/C=C/C(C)C)ccc1O [capsaicin]
- concentration expressed as mass of Capsaicin on mass of oil ([1]; deodorised sunflower oil enriched per Example 3 (R134a, 35° C., 7.66 atm, 90 minutes), measured at 25° C. after centrifugation 15 minutes at 10,000 RPM): 61.2 mg/100 g
- maximum concentration in vegetable oil ([2]; listed as capsicin): ≤ 10 mg per 100 g of oil
- maximum concentration in vegetable oil [2]: no more than 10 mg per 100 g of oil
- capsaicin concentration (absorbance at 280 nm), innovative methodology versus traditional methodology ([3]; sunflower oil, Example 3 versus maceration): approximately 6 times

Compound: COc1cc(/C=C/C(=O)CC(=O)/C=C/c2ccc(O)c(OC)c2)ccc1O [curcumin]
- concentration expressed as mass of Curcumin on mass of oil ([1]; wheat germ oil enriched per Example 2 (R1234ze, 28° C., 4.5 atm, 355 minutes), measured at 25° C. after centrifugation 15 minutes at 10,000 RPM): 1420 mg/100 g

Compound: CC(C)=CCC/C(C)=C/C=C/C(C)=C/C=C/C(C)=C/C=C/C=C(C)/C=C/C=C(C)/C=C/C=C(\C)CCC=C(C)C [lycopene]
- concentration expressed as mass of lycopene per mass of oil ([1]; refined argan oil enriched per Example 1 (R1234ze, 28° C., 4.5 atm, 120 minutes), measured at 25° C. after centrifuging 15 minutes at 10,000 RPM): 35 mg/100 g
- lycopene concentration (HPLC peak area), process of the invention versus conventional method [4]: about 3.3 times
- maximum concentration in vegetable oil [2]: 7-8 mg per 100 g of oil
- lycopene concentration (absorbance at 502 nm), process of the invention versus traditional methodology ([3]; Argan oil, Example 1 versus maceration of pure lycopene powder in oil): approximately 3.3 times
